The results in this text go back to the supplement of paper PMC10307832.

What all share (assay): relative viability (nuclei count vs DMSO), 5 days (fraction); higher = more cells survive
Compound in the test “IDH-C35 + Alpelisib”: Cc1ccccc1C(C(=O)NC1CCCCC1)N(C(=O)Cn1ccnc1C)c1cccc(F)c1 [IDH-C35] + Cc1nc(NC(=O)N2CCC[C@H]2C(N)=O)sc1-c1ccnc(C(C)(C)C(F)(F)F)c1 [Alpelisib] (partner 2 µM)
Summed up: (§1)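 A single step with final 0.05% Triton X-100, 1% formaldehyde and 1 ug/ml Hoechst fixed the cells and stained nuclei 5 days after treatment. Lung cancer cell lines in 1536-well plates had been treated by pin tool the day after seeding with one drug alone or a fixed anchor-drug dose plus five library-drug doses (not always all listed) in √10 steps, and nuclei were counted on 4× images. Relative viability is the ratio of nuclei in treated wells to nuclei in vehicle wells, taken as the median of duplicate plates.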

Compound in test [1]: CC1=C(C(=NN1)C)CC2=C(C3=C(S2)N(C(=O)N(C3=O)C)CC(C)C)C(=O)N4C[C@@H](CO4)O + Nc1nc2[nH]cc(CCc3ccc(C(=O)N[C@@H](CCC(=O)O)C(=O)O)cc3)c2c(=O)[nH]1 [Pemetrexed] (partner 0.2 µM)
The gist of the method: as §1

Compound in test [2]: CC1=C(C(=NN1)C)CC2=C(C3=C(S2)N(C(=O)N(C3=O)C)CC(C)C)C(=O)N4C[C@@H](CO4)O + C[C@@H](Oc1cc(-c2cnn(C3CCNCC3)c2)cnc1N)c1c(Cl)ccc(F)c1Cl [Crizotinib] (partner 1 µM)
Summed up: as §1

Compound in the test “IDH-C35 + Vorinostat”: Cc1ccccc1C(C(=O)NC1CCCCC1)N(C(=O)Cn1ccnc1C)c1cccc(F)c1 [IDH-C35] + O=C(CCCCCCC(=O)Nc1ccccc1)NO [Vorinostat] (partner 1 µM)
Summed up:
as §1

For UMC-11, the relative viability was determined as 0.998 in the test with IDH-C35 + Alpelisib (first compound 0.08 µM); 0.973 with IDH-C35 + Alpelisib (first compound 0.253 µM); 0.928 in the test with IDH-C35 + Alpelisib (first compound 0.8 µM); 0.946 with IDH-C35 + Alpelisib (first compound 2.53 µM); 0.988 with IDH-C35 + Alpelisib (first compound 8 µM); 0.791 in test [1] (first compound 0.0025 µM). Moreover, the relative viability in test [1] (first compound 0.007906 µM) was 0.86; in test [1] (first compound 0.025 µM) it was 0.779; in test [1] (first compound 0.07906 µM), 0.761; in test [1] (first compound 0.25 µM) it was 0.789; in test [2] (first compound 0.0025 µM), 0.647; in test [2] (first compound 0.007906 µM) it was 0.346. Further, the relative viability in test [2] (first compound 0.025 µM) worked out at 0.441; in test [2] (first compound 0.07906 µM), 0.628; in test [2] (first compound 0.25 µM), 0.657; with IDH-C35 + Vorinostat (first compound 0.08 µM) it was 0.373; with IDH-C35 + Vorinostat (first compound 0.253 µM) it was 0.468; in the test with IDH-C35 + Vorinostat (first compound 0.8 µM), 0.435. The values for the relative viability with IDH-C35 + Vorinostat (first compound 2.53 µM) and with IDH-C35 + Vorinostat (first compound 8 µM) were 0.434 and 0.46, respectively.
